According to paper PMC12217109, “Development of novel benzamide class I selective lysine deacetylase inhibitors as potent anticancer agents” (Journal of Enzyme Inhibition and Medicinal Chemistry, 2025):
“Also recorded” adds a separate entry of the source. Like-named read-outs stand apart in the source and are kept apart here.

Assays:
[1] = test system: MCF7 breast cancer cell line; experiment: MTT cellular viability assay, MCF7; assay type: cell-based; settings: Homo sapiens, 96 h
Description: (§1) The human A2780 ovarian (#93112519) and MCF-7 breast (#86012803) cancer cell lines were obtained from the European Cell Culture Collection (ECACC; Salisbury, UK). The human cardiac ventricular AC16 cell line (#SCC109) was obtained from Merck/Millipore (UK). The A2780 and MCF-7 cell lines were maintained in RPMI-1640 medium and the AC16 cell line was maintained in DMEM/F12 medium. Culture medium of all three cell lines was supplemented with 10% heat-inactivated foetal bovine serum (FBS) and 2 mM L-glutamine, with the cells maintained in a humidified 5% CO2 atmosphere at 37 °C. The media was changed every 72h and the cells passaged via trypsinisation (Trypsin EDTA, 0.25%) before reaching confluency.
(§2) Cytotoxicity of each compound against the cell lines was assessed using the MTT assay. Cells were seeded in three replicates into 96-well plates at a density of 2 × 10^3/well for 24h to facilitate cell attachment. Media was replaced with that containing either test compound (0–10µM) for A2780 and MCF7 cell lines, single concentration (10 µM) test compound for AC16 cell line, or drug vehicle (dimethyl sulphoxide; DMSO) and the cells incubated for a further 96 h at 37 °C in a humidified 5% CO2 atmosphere. […] Chemosensitivity was thereafter assessed using a standard 3-[4, 5-dimethylthiazolyl]-2,5-diphenyltetrazolium bromide (MTT) assay, with the optical density determined at 540 nm as an indicator of cellular viability.

acetylated tubulin = experiment: Flow cytometric analysis of tubulin acetylation in A2780 cells; assay type: cell-based, human; settings: A2780, 24 h, 10 µM
Description: (§3) The method was adapted from Ronzoni et al.[67] as previously described. A2780 cells were exposed to test compounds (0–10 µM) for 24 h, fixed with ice-cold ethanol (70% v/v) and permeabilised in the presence of 0.1% Triton-X. Non-specific protein binding was blocked using normal goat serum prior to incubation with or without primary antibodies raised against either anti-hyperacetylated Histone H4 (Penta) antibody (Upstate Biotechnology, USA) or acetylated tubulin (Sigma-Aldrich, UK), followed by incubation with FITC-conjugated secondary antibody (Dako). Cells were incubated in propidium iodide (PI) staining buffer (PBS with 50 µg/ml PI and 10 µg/ml RNase A) and subsequently analysed by flow cytometry (BD FACSCalibur; Becton Dickinson, UK). At least 15 000 events per sample were acquired and expression determined based on the detection of FITC fluorescence through the FL1 channel (530/30 nm bandpass optical filter), with cell doublets discriminated by forward/side scatter and background fluorescence omitted via comparison to unlabelled controls. Expression analysis was performed using CellQuest™ software (Becton Dickinson, UK).

OVCAR-5 = experiment: NCI-60 cytotoxicity screen; assay type: cell-based; settings: Homo sapiens, NCI-60, 48 h, ovarian
[2] = test system: A2780 ovarian cancer cell line; experiment: MTT cellular viability assay, A2780; assay type: cell-based; settings: Homo sapiens
acetylated histone H4 = experiment: Flow cytometric analysis of histone H4 acetylation in A2780 cells; assay type: cell-based, human; settings: A2780, 24 h, 5 µM or 10 µM
Description: as §3

T-47D = experiment: NCI-60 cytotoxicity screen; assay type: cell-based, human; settings: for IC50: Homo sapiens, T47D, NCI-60, 48 h, breast
H322M = experiment: NCI-60 cytotoxicity screen; assay type: cell-based, human; settings: for IC50: Homo sapiens, NCI-H322M, NCI-60, 48 h, NSCLC
From the text: (§4) Compounds 3–7 were submitted to the US National Cancer Institute (NIH, Bethesda, Maryland) for screening against the NCI-60 panel of human cancer cell lines, as per standard protocol.

UACC-257 = experiment: NCI-60 cytotoxicity screen; assay type: cell-based, human; settings: for IC50: Homo sapiens, UACC-257, NCI-60, 48 h, melanoma
From the text: as §4

TK-10 = experiment: NCI-60 cytotoxicity screen; assay type: cell-based, human; settings: for IC50: Homo sapiens, TK-10, NCI-60, 48 h, renal
From the text: as §4

A498 = experiment: NCI-60 cytotoxicity screen; assay type: cell-based; settings: Homo sapiens, NCI-60, 48 h, renal
From the text: as §4

SK-OV-3 = experiment: NCI-60 cytotoxicity screen; assay type: cell-based; settings: Homo sapiens, NCI-60, 48 h, ovarian
From the text: as §4

HOP-92 = experiment: NCI-60 cytotoxicity screen; assay type: cell-based; settings: Homo sapiens, NCI-60, 48 h, NSCLC
From the text: as §4

MOLT-4 = experiment: NCI-60 cytotoxicity screen; assay type: cell-based; settings: Homo sapiens, NCI-60, 48 h, leukaemia
From the text: as §4

HT29 = experiment: NCI-60 cytotoxicity screen; assay type: cell-based; settings: Homo sapiens, HT-29; NCI-60, 48 h, colon
From the text: as §4

H226 = experiment: NCI-60 cytotoxicity screen; assay type: cell-based; settings: Homo sapiens, NCI-60, 48 h, NSCLC
From the text: as §4

MALME-3M = experiment: NCI-60 cytotoxicity screen; assay type: cell-based; settings: Homo sapiens, read-out: MALME-3M cytotoxicity IC50, NCI-60, 48 h, melanoma
From the text: as §4

K562 = experiment: NCI-60 cytotoxicity screen; assay type: cell-based; settings: Homo sapiens, NCI-60, 48 h, leukaemia
MDA-MB-231 = experiment: NCI-60 cytotoxicity screen; assay type: cell-based; settings: Homo sapiens, MDA-MB-231, read-out: MDA-MB-231 cytotoxicity IC50; NCI-60, 48 h, breast
[3] = test system: AC16 ventricular cardiac cell line; experiment: MTT cellular viability assay, AC16; assay type: cell-based; settings: Homo sapiens, 96 h, single concentration 10 µM
Description: as §1, §2

[4] = test system: hyperacetylated Histone H4; experiment: Western blot of histone H4 hyperacetylation in A2780 cells; assay type: cell-based, human; settings: A2780, 10 µM, 2, 4, 16 hrs
Description: Cells were then washed with ice-cold phosphate buffered saline (PBS) and lysed and sonicated in RIPA buffer [150 mM NaCl, 50 mM TrisHCl pH 7.4, 5 mM EDTA, 1% NP40, 0.1% SDS, 1 mM phenylmethylsulphonyl fluoride (PMSF) and proteinase inhibitor cocktail (1x)]. Cellular debris was removed by centrifugation (12,000 × g for 20 min, 4 °C) and protein concentration of the supernatants determined by Bradford Assay. Proteins (30 μg protein per lane) were resolved by SDS-PAGE, then transferred to the PVDF membrane (Hybond-P; Amersham, UK). For band size determination, Amersham Full-Range Rainbow™ Molecular Weight Markers (#RPN800) were loaded adjacent to the proteins within the gel. Non-specific protein binding on the PVDF membrane was blocked using 5% non-fat milk powder and the membranes probed separately with either anti-hyperacetylated Histone H4 (Penta) antibody (Upstate Biotechnology, USA), acetylated tubulin or β-actin antibodies (Sigma-Aldrich, UK). This was followed by incubation with horseradish peroxidase (HRP)-conjugated secondary antibodies (Dako, USA), with immunoreactive bands detected by enhanced chemiluminescence (ECL Plus detection kit; Amersham, UK).

[5] = listed as A2780* of Table 4, ovarian, values as in Tables 1 and 2 (MTT), read-out: A2780* cytotoxicity IC50
[6] = A2780, MTT, 96 h, read-out: A2780 IC50

SMILES | IC50 [1] [µM] | tubulin acetylation (flow cytometry) (acetylated tubulin) | IC50 (OVCAR-5) [µM] | IC50 [2, 5] [µM] | acetylated histone H4 (flow cytometry) (acetylated histone H4) | IC50 (T-47D) [µM] | IC50 (H322M) [µM] | IC50 (UACC-257) [µM] | IC50 (TK-10) [µM] | IC50 (A498) [µM] | IC50 (SK-OV-3) [µM] | IC50 (HOP-92) [µM] | IC50 (MOLT-4) [µM] | IC50 (HT29) [µM] | IC50 (H226) [µM] | IC50 (MALME-3M) [µM] | IC50 (K562) [µM] | IC50 (MDA-MB-231) [µM] | IC50 [2, 6] [µM] | IC50 [3] [µM] | also measured
Nc1ccccc1NC(=O)c1ccc(CNC(=O)OCc2cccnc2)cc1 [Compound 1, Entinostat, reference compound] | 0.4 ± 0.1 | No change in Tubulin acetylation status; also recorded: neither 1 nor 7 induced a measurable change in tubulin acetylation | 1.05 | 0.6 | Increased acetylated histone H4 | 0.46 | 4.79 | 1.43 | 0.29 | 0.36 | 2.75 | 0.04 | 1.93 | 1.03 | 0.6 | 0.58 |  |  |  |  | 
C=C(CN1CCN(c2ccccc2C(F)(F)F)CC1)c1ccc(C(=O)Nc2ccccc2N)cc1 [Compound 3, N-(2-aminophenyl)-4–(3-(4–(2-(trifluoromethyl)phenyl)piperazin-1-yl)prop-1-en-2-yl)benzamide] | 7.3 ± 0.4 |  | 11.8 | 7.5 |  | 7.67 | 11.4 | 4.67 | 4.63 | 3.55 | 11 | 1.85 | 0.13 | 4.09 | 7.78 | 4.18 | 1.54 | 4.68 | 7.5 ± 0.7 | > 10 | 
C=C(CN1CCN(c2cccc(C(F)(F)F)c2)CC1)c1ccc(C(=O)Nc2ccccc2N)cc1 [Compound 4, N-(2-aminophenyl)-4–(3-(4–(3-(trifluoromethyl)phenyl)piperazin-1-yl)prop-1-en-2-yl)benzamide] | 1.4 ± 0.1 |  | 6.62 | 1.6 |  | 13.2 | 0.94 | 0.76 | 0.81 | 0.01 |  | 1.51 | 0.13 | 1.46 | 1.89 |  | 0.18 | 0.94 | 1.6 ± 0.5 | > 10 | fold less sensitive than to 1, T-47D (T-47D; T-47D breast cell line): > 28 fold; fold improvement in cytotoxicity sensitivity compared to 7, H322M (H322M; H322M NSCLC): approximately 100 fold; fold improvement in cytotoxicity sensitivity compared to 7, UACC-257 (UACC-257; UACC-257 melanoma): ~35 fold; fold improvement in cytotoxicity sensitivity compared to 7, TK-10 (TK-10; TK-10 renal): ~20 fold
C=C(CN1CCN(c2ccc(C(F)(F)F)cc2)CC1)c1ccc(C(=O)Nc2ccccc2N)cc1 [Compound 5, N-(2-aminophenyl)-4–(3-(4–(4-(trifluoromethyl)phenyl)piperazin-1-yl)prop-1-en-2-yl)benzamide] | 0.4 ± 0.4 |  | > 100 | 1.9 |  | 21.8 | 40.5 | 2.39 | 21 | 7.67 | 12.1 | 3.94 | 0.6 | 75.7 | 7.52 | 19.3 | 0.3 | 3.6 | 1.9 ± 0.4 | > 10 | 
C=C(CN1CCN(c2ccccn2)CC1)c1ccc(C(=O)Nc2ccccc2N)cc1 [Compound 6, N-(2-aminophenyl)-4–(3-(4-(pyridin-2-yl)piperazin-1-yl)prop-1-en-2-yl)benzamide] | 3.2 ± 0.8 |  | 6.1 | 3.5 |  | 1.23 | 3.12 | 2.32 | 1.85 |  | 1.3 | 5.7 |  |  |  |  | 0.96 | 2.17 | 3.5 ± 1.3 | > 10 | 
C=C(CN1CCN(c2cccc(C(F)(F)F)n2)CC1)c1ccc(C(=O)Nc2ccccc2N)cc1 [Compound 7, N-(2-aminophenyl)-4–(3-(4–(6-(trifluoromethyl)pyridin-2-yl)piperazin-1-yl)prop-1-en-2-yl)benzamide] | 0.8 ± 0.3 | No change in Tubulin acetylation status; also recorded: neither 1 nor 7 induced a measurable change in tubulin acetylation | 0.71 | 0.8 | Increased acetylated histone H4; also recorded: Increased induction in histone H4 acetylation | 3.01 | > 100 | 26.5 | 16.4 | 0.97 | 2.55 |  | 0.86 | 0.56 | 13.4 | 1.06 |  | 4.62 | 0.8 ± 0.1 | > 10 | histone H4 hyperacetylation (western blotting) [4]: Time dependent increase in Histone H4 acetylation; also recorded: time-dependent increase in histone H4 hyperacetylation
